From US20140378416A1, “SILYL-CONTAINING HETEROCYCLIC COMPOUNDS AND METHODS OF USE THEREOF FOR THE TREATMENT OF VIRAL DISEASES” (priority 2011, published 2014)

Assays:
HCV replicon 1b = experiment: Cell-based HCV replicon assay (TaqMan), genotype 1b replicon; conditions: Hepatitis C virus, 72 h, HCV 1b replicon cells, replicon RNA by TaqMan on day 3; EC90 = concentration for ΔCT=3.2 over baseline
Method: (§1) Measurement of inhibition by compounds of the present invention was performed using the HCV replicon system. Several different replicons encoding different HCV genotypes or mutations were used. In addition, potency measurements were made using different formats of the replicon assay, including different ways of measurements and different plating formats. See Jan M. Vrolijk et al., A replicons-based bioassay for the measurement of interferons in patients with chronic hepatitis C, 110 J. VIROLOGICAL METHODS 201 (2003); Steven S. Carroll et al., Inhibition of Hepatitis C Virus RNA Replication by 2′-Modified Nucleoside Analogs, 278(14) J. BIOLOGICAL CHEMISTRY 11979 (2003). However, the underlying principles are common to all of these determinations, and are outlined below.
(§2) Compounds of the present invention were assayed for cell-based anti-HCV activity using the following protocol. Replicon cells were seeded at 5000 cells/well in 96-well collagen I-coated Nunc plates in the presence of the test compound. Various concentrations of test compound, typically in 10 serial 2-fold dilutions, were added to the assay mixture, with the starting concentration ranging from 250 μM to 1 μM. The final concentration of DMSO was 0.5%, fetal bovine serum was 5%, in the assay media. Cells were harvested on day 3 by the addition of 1× cell lysis buffer (Ambion cat #8721). The replicon RNA level was measured using real time PCR (TaqMan® assay). The amplicon was located in 5B. The PCR primers were: 5B.2F, ATGGACAGGCGCCCTGA (SEQ. ID NO. 1); 5B.2R, […] (SEQ. ID NO. 2); the probe sequence was FAM-labeled CACGCCATGCGCTGCGG (SEQ. ID NO. 3). GAPDH RNA was used as endogenous control and was amplified in the same reaction as NS5B (multiplex PCR) using primers and VIC-labeled probe recommended by the manufacturer (PE Applied Biosystem). The real-time […] reactions were run on ABI PRISM 7900HT Sequence Detection System using the following program: 48° C. for 30 minutes, 95° C. for 10 minutes, 40 cycles of 95° C. for 15 sec, 60° C. for 1 minute. The ACT values (CT5B-CTGAPDH) were plotted against the concentration of test compound and fitted to the sigmoid dose-response model using XLfit4 (MDL). EC50 was defined as the concentration of inhibitor necessary to achieve ΔCT=1 over the projected baseline; EC90 the concentration necessary to achieve ΔCT=3.2 over the baseline. Alternatively, to quantitate the absolute amount of replicon RNA, a standard curve was established by including serially diluted T7 transcripts of replicon RNA in the Taqman assay. All TaqMan® reagents were from PE Applied Biosystems. Such an assay procedure was described in detail in e.g. Malcolm et al., Antimicrobial Agents and Chemotherapy 50: 1013-1020 (2006).
(§3) HCV replicon EC50 assay data for various replicons and mutants was calculated for selected compounds of the present invention using this method and is provided in the tables above herein.

HCV replicon 1a = experiment: Cell-based HCV replicon assay (TaqMan), genotype 1a replicon; conditions: Hepatitis C virus, 72 h, HCV 1a replicon cells, replicon RNA by TaqMan on day 3; EC90 = concentration for ΔCT=3.2 over baseline
Method: as §1, §2, §3

HCV replicon 1a Y93H = experiment: Cell-based HCV replicon assay (TaqMan), genotype 1a Y93H mutant replicon; conditions: Hepatitis C virus, 72 h, read-out: 1a Y93H EC90, HCV 1a Y93H mutant replicon cells, replicon RNA by TaqMan on day 3; EC90 = concentration for ΔCT=3.2 over baseline
Method: as §1, §2, §3

HCV replicon 2b = experiment: Cell-based HCV replicon assay (TaqMan), genotype 2b replicon; conditions: Hepatitis C virus, 72 h, read-out: 2b EC90, HCV 2b replicon cells, replicon RNA by TaqMan on day 3; EC90 = concentration for ΔCT=3.2 over baseline
Method: as §1, §2, §3

Structure (SMILES) | EC90 (HCV replicon 1b) [nM] | EC90 (HCV replicon 1a) [nM] | EC90 (HCV replicon 1a Y93H) [nM] | EC90 (HCV replicon 2b) [nM]
C[Si]1(C)CN[C@H](c2ncc(-c3ccc(-c4ccc(-c5cnc([C@@H]6CCCN6)[nH]5)cc4)cc3)[nH]2)C1 [Compound 2] | > 1000 | > 100 | – | –
COC(=O)N[C@H](C(=O)N1CCC[C@H]1c1ncc(-c2ccc(-c3ccc(-c4cnc([C@@H]5C[Si](C)(C)CN5C(=O)[C@@H](NC(=O)OC)C(C)C)[nH]4)cc3)cc2)[nH]1)C(C)C [Compound 3] | 0.005 | 0.16 | 398 | –
COC(=O)N[C@H](C(=O)N1CC(F)(F)C[C@H]1c1ncc(-c2ccc(-c3ccc(-c4cnc([C@@H]5C[Si](C)(C)CN5C(=O)[C@@H](NC(=O)OC)C(C)C)[nH]4)cc3)cc2)[nH]1)C(C)C [Compound 4] | 0.007 | 0.1 | 272 | –
COC(=O)N[C@H](C(=O)N1C[Si](C)(C)C[C@H]1c1ncc(-c2ccc(-c3ccc(-c4cnc([C@@H]5[C@H]6CC[C@H](C6)N5C(=O)[C@@H](NC(=O)OC)C(C)C)[nH]4)cc3)cc2)[nH]1)C(C)C [Compound 5] | 0.004 | 0.21 | 203 | –
COC(=O)N[C@H](C(=O)N1C[Si](C)(C)C[C@H]1c1ncc(-c2ccc(-c3ccc(-c4cnc([C@@H]5C[Si](C)(C)CN5C(=O)[C@@H](NC(=O)OC)C(C)C)[nH]4)cc3)cc2)[nH]1)C(C)C [Compound 6] | 0.015 | 0.98 | > 1000 | –
COC(=O)N[C@H](C(=O)N1C[C@H](F)C[C@H]1c1ncc(-c2ccc(-c3ccc(-c4cnc([C@@H]5C[Si](C)(C)CN5C(=O)[C@@H](NC(=O)OC)C(C)C)[nH]4)cc3)cc2)[nH]1)C(C)C [Compound 7] | 0.009 | 0.77 | 229 | –
COC(=O)N[C@H](C(=O)N1CCC[C@H]1c1ncc(-c2ccc(-c3ccc4[nH]c([C@@H]5C[Si](C)(C)CN5C(=O)[C@@H](NC(=O)OC)C(C)C)nc4c3)cc2)[nH]1)C(C)C [Compound 9] | < 1 | > 1 | > 1000 | –
COC(=O)N[C@@H](C(=O)N1CCC[C@@H]1c1ncc(-c2ccc(-c3ccc(-c4cnc([C@H]5C[Si](C)(C)CN5C(=O)[C@H](NC(=O)OC)C5CC5)[nH]4)cc3)cc2)[nH]1)C1CC1 [Compound 23] | – | 1.16 | 1000 | 550
CC(C)(C)OC(=O)N1C[Si](C)(C)C[C@H]1c1ncc(-c2ccc(-c3ccc(-c4[nH]c([C@@H]5C[C@H]6C[C@H]6N5C(=O)OC(C)(C)C)nc4F)cc3)cc2)[nH]1 [Compound 42] | – | > 1 | > 1000 | > 1000
COC(=O)N[C@H](C(=O)N1C[Si](C)(C)C[C@H]1c1ncc(-c2ccc(-c3ccc(-c4[nH]c([C@@H]5C[C@H]6C[C@H]6N5C(=O)[C@@H](NC(=O)OC)C(C)C)nc4F)cc3)cc2)[nH]1)C(C)C [Compound 44] | – | 0.17 | 285 | 168
CC(C)(C)OC(=O)N1C[Si](C)(C)C[C@H]1c1ncc(-c2ccc(-c3ccc(-c4cnc([C@@H]5C[C@H]6C[C@H]6N5C(=O)OC(C)(C)C)[nH]4)cc3)cc2)[nH]1 [Compound 46] | – | > 1000 | > 1000 | 422
COC(=O)N[C@H](C(=O)N1C[Si](C)(C)C[C@H]1c1ncc(-c2ccc(-c3ccc(-c4cnc([C@@H]5C[C@H]6C[C@H]6N5C(=O)[C@@H](NC(=O)OC)C5CCOCC5)[nH]4)cc3)cc2)[nH]1)C1CCOCC1 [Compound 48] | – | 0.18 | 144 | 9
CC(C)(C)OC(=O)N1C[Si](C)(C)C[C@H]1c1nc(Cl)c(-c2ccc(-c3ccc(-c4[nH]c([C@@H]5C[C@H]6C[C@H]6N5C(=O)OC(C)(C)C)nc4Cl)cc3)cc2)[nH]1 [Compound 49] | – | > 1000 | > 1000 | > 1000
